Results taken from patent US20050282755A1, “Compositions having antimicrobial activity and uses thereof” (priority 2004, published 2005).
Values after ≈ are worked out from the molar mass of the structure shown. Non-standard residues stand in square brackets, D forms with d. Residues, ends and D or L forms follow the SMILES beside them. *: point of attachment. Lauroyl = CCCCCCCCCCCC(=O)*

Columns and labels:
Type in all cases: cell-based
[1] = tested on: Propionibacterium acnes ATCC 6919; assay: MIC, agar dilution method NCCLS M11-A6, Brucella agar, anaerobic (Table 9, superscript c); settings: ATCC 6919
Description: A bacterial suspension was prepared to allow for a final inoculum on the plate of 1.5×10^8 CFU/milliliter. After the suspension absorbed into the agar surface, the plates were incubated for 48-96 hours at 37° C. in a GasPak anaerobic chamber. The lowest concentration of peptide that contained no colony growth on the agar plate was determined as the MIC. MIC values that utilized this method of MIC determination are indicated in Table 9 with a superscript letter “c.”

[2] = tested on: Candida albicans ATCC 18804; assay: MIC in yeasts, NCCLS M27-A2 broth microdilution, RPMI 1640 (Table 9, letter e); settings: ATCC 18804
Description: Briefly, RPMI 1640 supplemented with glutamine and phenol red as a pH indicator was used in the broth microdilution method. A 96-well plate was inoculated so that the final inoculum of yeast for each well contained between 0.5×10^3 and 2.5×10^3 CFU/milliliter. […] Plates were incubated for 24 to 48 hours at 37° C. The lowest concentration of peptide that contained no visible growth was determined as the MIC. MIC values that utilized this method of MIC determination are indicated in Table 9 with a subscript letter “e.” “Peptide Number” corresponds to peptide compositions and corresponding designations in Table 3.

[3] = tested on: Staphylococcus aureus ATCC 29213; assay: MIC, NCCLS M7-A6 broth microdilution, cation-adjusted Mueller Hinton broth (Table 9, no superscript); settings: ATCC 29213
Summary of the method: (§1)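 Broth microdilution in cation-adjusted Mueller Hinton broth with log-phase inoculum at 5×10^5 to 1×10^6 CFU/mL, incubated overnight at 37° C. MIC was the lowest peptide concentration showing no visible turbidity versus the no-peptide control.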

[4] = tested on: Escherichia coli ATCC 25922; assay: MIC, NCCLS M7-A6 broth microdilution (Table 9, no superscript); settings: ATCC 25922
Summary of the method: as §1

[5] = tested on: Pseudomonas aeruginosa ATCC 27853; assay: as above; settings: ATCC 27853
Summary of the method: as §1

[6] = tested on: Staphylococcus epidermidis ATCC 12228; assay: as above; settings: ATCC 12228
Summary of the method: as §1

Salmonella dublin (Lane) = assay: as above
Summary of the method: as §1

Compound	MIC P. acnes [1] [c ug/mL]	MIC C. albicans [2] [e ug/mL]	MIC S. aureus [3] [µg/mL]	MIC E. coli [4] [µg/mL]	MIC P. aeruginosa [5] [µg/mL]	MIC S. epidermidis [6] [µg/mL]	MIC S. dublin (Salmonella dublin (Lane)) [µg/mL]
Lauryl-rsrwrdvarfm-NH2 [Peptide 115]	4	–	–	–	–	–	–
CCCCCCCCCCCC(=O)N[C@H](CCCNC(=N)N)C(=O)N[C@H](CO)C(=O)N[C@H](CCCNC(=N)N)C(=O)N[C@H](Cc1c[nH]c2ccccc12)C(=O)N[C@H](CCCNC(=N)N)C(=O)N[C@H](CC(=O)O)C(=O)N[C@@H](C(=O)N[C@H](C)C(N)=O)C(C)C [Peptide 119, Lauryl-rsrwrdva-NH2] (Lauroyl-[dR][dS][dR][dW][dR][dD][dV][dA]-NH2)	–	16	32 (≈ 26.1 µM)	64 (≈ 52.2 µM)	32 (≈ 26.1 µM)	16 (≈ 13 µM)	64 (≈ 52.2 µM)
CCCCCCCCCCCC(=O)N[C@H](CO)C(=O)N[C@H](CCCNC(=N)N)C(=O)N[C@H](Cc1c[nH]c2ccccc12)C(=O)N[C@H](CCCNC(=N)N)C(=O)N[C@H](CC(=O)O)C(=O)N[C@@H](C(=O)N[C@H](C)C(N)=O)C(C)C [Peptide 121, Lauryl-srwrdva-NH2] (Lauroyl-[dS][dR][dW][dR][dD][dV][dA]-NH2)	–	>64	>64	>64	>64	>64	>64
CCCCCCCCCCCC(=O)N[C@@H](CCCNC(=N)N)C(=O)N[C@@H](CO)C(=O)N[C@@H](CCCNC(=N)N)C(=O)N[C@@H](Cc1c[nH]c2ccccc12)C(=O)N[C@@H](CCCNC(=N)N)C(=O)N[C@@H](CC(=O)O)C(=O)N[C@@H](Cc1c[nH]c2ccccc12)C(=O)N[C@@H](C)C(=O)N[C@@H](CCCNC(=N)N)C(=O)N[C@@H](CC(N)=O)C(=O)N[C@@H](Cc1c[nH]c2ccccc12)C(=O)N[C@@H](CCSC)C(=O)N[C@@H](CCCNC(=N)N)C(=O)N[C@@H](Cc1c[nH]c2ccccc12)C(=O)N[C@@H](Cc1c[nH]c2ccccc12)C(N)=O [Peptide 145, Lauryl-RSRWRDWARNWMRWW-NH2] (Lauroyl-RSRWRDWARNWMRWW-NH2)	–	2	>64	>64	>64	16 (≈ 6.58 µM)	>64
CCCCCCCCCCCC(=O)N[C@@H](CCCNC(=N)N)C(=O)N[C@@H](CO)C(=O)N[C@@H](CCCNC(=N)N)C(=O)N[C@@H](Cc1c[nH]c2ccccc12)C(=O)N[C@@H](CCCNC(=N)N)C(=O)N[C@@H](CC(=O)O)C(=O)N[C@H](C(=O)N[C@@H](C)C(=O)N[C@@H](CCCNC(=N)N)C(=O)N[C@@H](CC(N)=O)C(=O)N[C@@H](Cc1ccccc1)C(=O)N[C@@H](CCSC)C(=O)N[C@@H](CCCNC(=N)N)C(=O)N[C@@H](Cc1c[nH]c2ccccc12)C(=O)N[C@@H](Cc1c[nH]c2ccccc12)C(N)=O)C(C)C [Peptide 142, Lauryl-RSRWRDVARNFMRWW-NH2] (Lauroyl-RSRWRDVARNFMRWW-NH2)	–	4	64 (≈ 27.8 µM)	64 (≈ 27.8 µM)	>64	8 (≈ 3.47 µM)	>64
CCCCCCCCCCCC(=O)N[C@@H](CCCNC(=N)N)C(=O)N[C@@H](CO)C(=O)N[C@@H](CCCNC(=N)N)C(=O)N[C@@H](Cc1c[nH]c2ccccc12)C(=O)N[C@@H](CCCNC(=N)N)C(=O)N[C@@H](CC(=O)O)C(=O)N[C@H](C(=O)N[C@@H](CC(C)C)C(=O)N[C@@H](CCCNC(=N)N)C(=O)N[C@@H](CC(N)=O)C(=O)N[C@@H](Cc1ccccc1)C(=O)N[C@@H](CC(C)C)C(=O)N[C@@H](CCCNC(=N)N)C(=O)N[C@@H](CC(C)C)C(=O)N[C@@H](CC(C)C)C(N)=O)C(C)C [Peptide 138, Lauryl-RSRWRDVLRNFLRLL-NH2] (Lauroyl-RSRWRDVLRNFLRLL-NH2)	–	2	>64	>64	>64	>64	>64
CCCCCCCCCCCC(=O)N[C@@H](CCCNC(=N)N)C(=O)N[C@@H](CO)C(=O)N[C@@H](CCCNC(=N)N)C(=O)N[C@@H](Cc1c[nH]c2ccccc12)C(=O)N[C@@H](CCCNC(=N)N)C(=O)N[C@@H](CC(=O)O)C(=O)N[C@@H](Cc1c[nH]c2ccccc12)C(=O)N[C@@H](C)C(=O)N[C@@H](CCCNC(=N)N)C(=O)N[C@@H](CC(N)=O)C(=O)N[C@@H](Cc1c[nH]c2ccccc12)C(=O)N[C@@H](CCSC)C(=O)N[C@@H](CCCNC(=N)N)C(=O)N[C@@H](CC(C)C)C(=O)N[C@@H](CC(C)C)C(N)=O [Peptide 146, Lauryl-RSRWRDWARNWMRLL-NH2] (Lauroyl-RSRWRDWARNWMRLL-NH2)	–	2	64 (≈ 28 µM)	>64	>64	4 (≈ 1.75 µM)	64 (≈ 28 µM)
CCCCCCCCCCCC(=O)N[C@@H](CCCNC(=N)N)C(=O)N[C@@H](CO)C(=O)N[C@@H](CCCNC(=N)N)C(=O)N[C@@H](Cc1c[nH]c2ccccc12)C(=O)N[C@@H](CCCNC(=N)N)C(=O)N[C@@H](CC(=O)O)C(=O)N[C@@H](Cc1c[nH]c2ccccc12)C(=O)N[C@@H](Cc1c[nH]c2ccccc12)C(=O)N[C@@H](CCCNC(=N)N)C(=O)N[C@@H](CC(N)=O)C(=O)N[C@@H](Cc1c[nH]c2ccccc12)C(=O)N[C@@H](CCSC)C(=O)N[C@@H](CCCNC(=N)N)C(N)=O [Peptide 147, Lauryl-RSRWRDWWRNWMR-NH2] (Lauroyl-RSRWRDWWRNWMR-NH2)	–	2	64 (≈ 29.5 µM)	64 (≈ 29.5 µM)	>64	2 (≈ 0.921 µM)	64 (≈ 29.5 µM)
CCCCCCCCCCCC(=O)N[C@H](Cc1c[nH]c2ccccc12)C(=O)N[C@H](CCCNC(=N)N)C(=O)N[C@H](CC(=O)O)C(=O)N[C@@H](C(=O)N[C@H](C)C(=O)N[C@H](CCCNC(=N)N)C(=O)N[C@H](CC(N)=O)C(=O)N[C@H](Cc1ccccc1)C(=O)N[C@H](CCSC)C(=O)N[C@H](CCCNC(=N)N)C(N)=O)C(C)C [Peptide 129, Lauryl-wrdvarnfmr-NH2] (Lauroyl-[dW][dR][dD][dV][dA][dR][dN][dF][dM][dR]-NH2)	–	>64	>64	>64	>64	32 (≈ 20.9 µM)	>64
